Experimental data from paper PMC7407158, “Reprogramming of the Antibacterial Drug Vancomycin Results in Potent Antiviral Agents Devoid of Antibacterial Activity” (Pharmaceuticals, 2020).
Converted amounts (≈) assume the structure as drawn.

What was measured:
[1] = tested on: HEL, human embryonic lung fibroblast cells; conditions: read-out: CC50 HEL; mock-infected HEL cells, MTS assay
B. subtilis ATCC 6633 = test: Broth microdilution MIC, B. subtilis ATCC 6633; format: cell-based; conditions: Bacillus subtilis, ATCC6633; B. subtilis ATCC 6633; broth microdilution; read-out: In Vitro MIC
Procedure: (§1) Antibacterial tests were carried out by the broth microdilution method on a panel of eight Gram-positive bacterial strains, using vancomycin and teicoplanin as reference compounds.

[2] = tested on: S. epidermidis ATCC 35984; test: Broth microdilution MIC, S. epidermidis ATCC 35984; format: cell-based; conditions: Staphylococcus epidermidis, ATCC35984; S. epidermidis ATCC 35984; broth microdilution; read-out: In Vitro MIC
Procedure: as §1

[3] = tested on: S. aureus MSSA ATCC 29213; test: Broth microdilution MIC, S. aureus MSSA ATCC 29213; format: cell-based; conditions: Staphylococcus aureus; S. aureus MSSA ATCC 29213; broth microdilution; read-out: In Vitro MIC
Procedure: as §1

E. faecalis 15,376 VanA = test: Broth microdilution MIC, E. faecalis 15,376 VanA; format: cell-based; conditions: Enterococcus faecalis, read-out: In Vitro MIC
Procedure: as §1

MDCK cells = conditions: read-out: CC50 (50% cytotoxic concentration), mock-infected, MTS cell viability assay, three days
[4] = tested on: E. faecalis ATCC 51,299 VanB; test: Broth microdilution MIC, E. faecalis ATCC 51,299 VanB; format: cell-based; conditions: Enterococcus faecalis, ATCC51, read-out: In Vitro MIC
Procedure: as §1

influenza A or B viruses = test: Anti-influenza virus activity in MDCK cells, MTS assay, overall for the three influenza A or B viruses; format: cell-based, Influenza A and B viruses
E. faecalis ATCC 29212 = test: Broth microdilution MIC, E. faecalis ATCC 29212; format: cell-based; conditions: Enterococcus faecalis, ATCC29212; E. faecalis ATCC 29212; broth microdilution; read-out: In Vitro MIC
Procedure: as §1

[5] = tested on: HeLa, human cervix carcinoma cells; conditions: read-out: CC50 HeLa; mock-infected HeLa cells, MTS assay
S. epidermidis mecA = test: Broth microdilution MIC, S. epidermidis mecA; format: cell-based; conditions: Staphylococcus epidermidis, read-out: In Vitro MIC
Procedure: as §1

[6] = tested on: Vero, African Green monkey kidney cells; conditions: read-out: CC50 Vero; mock-infected Vero cells, MTS assay
A/PR/8/34 virus = format: cell-based, Influenza A virus
[7] = tested on: S. aureus MRSA ATCC 33591; test: Broth microdilution MIC, S. aureus MRSA ATCC 33591; format: cell-based; conditions: Staphylococcus aureus, read-out: In Vitro MIC
Procedure: as §1

human coronavirus 229E [8] = test: Coronavirus 229E virus yield reduction, RT-qPCR of viral RNA in supernatant, HEL cells; format: cell-based; conditions: day 4 p.i.
Procedure: To assess inhibition of human coronavirus 229E replication, HEL cells were infected and treated with 1:2 serial compound dilutions. The plate contained three virus controls (receiving no compound) and two cell controls (receiving no virus and no compound). At day 4 p.i., supernatants were frozen at −80 °C to determine the virus yield by one-step RT-qPCR assay. Two microliters supernatant was mixed with 11 µl lysis mix containing lysis enhancer and resuspension buffer at a 1:10 ratio (CellsDirect One-Step RT-qPCR kit; Invitrogen), and heated for 10 min at 75 °C. Five microliters of lysate was transferred to a PCR plate containing 9.75 µl RT-qPCR mix (CellsDirect One-Step RT-qPCR) and 0.25 µl Superscript III RT/Platinum Taq enzyme, and coronavirus-229E N-gene specific primers and probe (forward primer 5′-[…] -3′; reverse primer 5′-[…] -3′; probe 5′-FAM-[…]-ZEN-[…] -IBFQ-3′). The RT-qPCR program consisted of 15 min at 50 °C, 2 min at 95 °C, and 50 cycles of 15 s at 95 °C and 45 s at 60 °C. An N-gene plasmid standard was included for absolute quantification.

human coronavirus 229E [9] = format: cell-based; conditions: 25 µM compound (non-toxic concentration); HEL cells
[10] = tested on: Influenza B (B/Ned/537/05); test: Influenza CPE reduction in MDCK cells, MTS assay, influenza B; format: cell-based; conditions: Influenza B virus, inhibition of virus-induced CPE by MTS assay, read-out: Antiviral EC50 Influenza B
[11] = tested on: yellow fever virus (vaccine strain 17D); test: microbe, parasite or virus in culture; format: cell-based; conditions: Vero, read-out: Antiviral EC50 Yellow Fever Virus
in vitro [12] = conditions: human
[13] = tested on: Influenza A/H1N1 (A/Ned/378/05); test: Influenza CPE reduction in MDCK cells, MTS assay, A/H1N1; format: cell-based; conditions: Influenza A virus, H1N1, MDCK, read-out: Antiviral EC50 Influenza A/H1N1
[14] = tested on: respiratory syncytial virus (RSV, strain Long); test: CPE reduction, MTS assay, RSV in HeLa cells; format: cell-based; conditions: human respiratory syncytial virus, read-out: Antiviral EC50 RSV
in vitro [15] = conditions: African green monkey
[16] = tested on: Influenza A/H3N2 (A/Victoria/361/11); test: Influenza CPE reduction in MDCK cells, MTS assay, A/H3N2; format: cell-based; conditions: Influenza A virus, H3N2, MDCK, read-out: Antiviral EC50 Influenza A/H3N2
in vitro [17] = conditions: human; remark: listed apart in the source
[18] = tested on: Zika virus (strain MR766); test: CPE reduction, MTS assay, Zika virus in Vero cells; format: cell-based; conditions: protection against virus-induced CPE, read-out: Antiviral EC50 Zika Virus

## CCCCCCCCCCOCc1cn(CCOCCOCCOCCOCc2cn(C3C(=O)NC(CC(N)=O)C(=O)NC4C(=O)NC5C(=O)NC(C(=O)NC(C(=O)O)c6cc(O)cc(O)c6-c6cc5ccc6O)C(O)c5ccc(c(Cl)c5)Oc5cc4cc(c5O)Oc4ccc(cc4Cl)C3O)nn2)nn1 (stereo not drawn) [Compound 6]
[1]
  CC50: > 100 µM
B. subtilis ATCC 6633
  MIC: 32 µg/mL (≈ 21.4 µM)
[2]
  MIC: 32 µg/mL (≈ 21.4 µM)
[3]
  MIC: 128 µg/mL (≈ 85.5 µM)
E. faecalis 15,376 VanA
  MIC: 128 µg/mL (≈ 85.5 µM)
MDCK cells
  CC50: 41 µM
[4]
  MIC: 128 µg/mL (≈ 85.5 µM)
Influenza A or B viruses
  anti-influenza virus activity (in words): robust activity
E. faecalis ATCC 29212
  MIC: 32 µg/mL (≈ 21.4 µM)
[5]
  CC50: > 100 µM
S. epidermidis mecA
  MIC: 32 µg/mL (≈ 21.4 µM)
[6]
  CC50: > 100 µM
A/PR/8/34 virus
  virus-induced cytopathic effect (CPE) upon microscopic inspection: no virus-induced cytopathic effect (CPE) was observed
[7]
  MIC: 128 µg/mL (≈ 85.5 µM)
Human coronavirus 229E [8]; 25 µM compound
  reduction of the viral RNA copy number in the supernatant: 1000 fold
Human coronavirus 229E [8]; RT-qPCR of supernatant
  EC99 value for reduction of virus yield: 20 µM
Human coronavirus 229E [9]
  coronavirus 229E-induced cytopathicity observed microscopically: no coronavirus 229E-induced cytopathicity could be observed microscopically

## NC(=O)c1ncn([C@@H]2O[C@H](CO)[C@@H](O)[C@H]2O)n1 [Ribavirin]
[10]
  EC50: 7.2 µM
[11]
  EC50: 119 µM
In vitro [12]
  CC50: > 250 µM
[13]
  EC50: 7 µM
[14]
  EC50: 5 µM
In vitro [15]
  CC50: > 250 µM
[16]
  EC50: 6.4 µM
In vitro [17]
  CC50: > 250 µM

## COc1c(C)c2c(c(O)c1C/C=C(\C)CCC(=O)O)C(=O)OC2 [Mycophenolic acid]
[11]
  EC50: 0.7 µM
In vitro [12]
  CC50: > 100 µM
In vitro [15]
  CC50: > 100 µM
[18]
  EC50: 0.8 µM
In vitro [17]
  CC50: > 100 µM
